Literature values as cited in patent US4902791A, “Nitrosourea derivatives, process for their preparation and medicaments containing them” (Sanofi S.A., priority 1983, dated 1990).

Key:
[1] = MONTERO et al; cited from earlier work
L 1210 leucemia = settings: IMBACH et al; cited from earlier work

| Compound | toxicity on the bone marrow [1] | oncostatic action on L 1210 leucemia (L 1210 leucemia) |
| --- | --- | --- |
| O=NN(CCCl)C(=O)N[C@@H]1O[C@H](CO)[C@@H](O)[C@H](O)[C@H]1O [1-[3-(2-chloro-ethyl) 3-nitroso-ureido]-1-beta-D-glucopyranose] | lower toxicity on the bone marrow |  |
| CC(=O)O[C@H]1[C@H](OC(C)=O)COC(NC(=O)N(CCCl)N=O)[C@@H]1OC(C)=O (stereo partly drawn) [XPCNU, 1-(2-chloro-ethyl) 3-(xylopyranosyl 2',3',4'-triacetate)-nitrosourea] |  | oncostatic action |
| CC(=O)OC[C@H]1O[C@@H](NC(=O)N(CCCl)N=O)[C@H](OC(C)=O)[C@@H](OC(C)=O)[C@@H]1OC(C)=O [2,3,4,6-tetra-O-acetyl 1-[3-(2-chlor-ethyl)nitroso-3-ureido]-1-desoxy-beta-D-glucopyranose] | lower toxicity on the bone marrow |  |
